Data reported in article PMC10756276, “Highly specific σ2R/TMEM97 ligand FEM-1689 alleviates neuropathic pain and inhibits the integrated stress response” (Proceedings of the National Academy of Sciences of the …, 2023).
Entries after “also recorded” stand apart in the source; their conditions may differ.

Legend:
5HT1e = 5HT1e (Homo sapiens, UniProt P28566); test: PDSP competitive binding assay; conditions: 10 µM test article; read-out: Ki: primary assay inhibition of radioligand binding, 5HT1e
Sequence of 5HT1e (P28566 whole entry): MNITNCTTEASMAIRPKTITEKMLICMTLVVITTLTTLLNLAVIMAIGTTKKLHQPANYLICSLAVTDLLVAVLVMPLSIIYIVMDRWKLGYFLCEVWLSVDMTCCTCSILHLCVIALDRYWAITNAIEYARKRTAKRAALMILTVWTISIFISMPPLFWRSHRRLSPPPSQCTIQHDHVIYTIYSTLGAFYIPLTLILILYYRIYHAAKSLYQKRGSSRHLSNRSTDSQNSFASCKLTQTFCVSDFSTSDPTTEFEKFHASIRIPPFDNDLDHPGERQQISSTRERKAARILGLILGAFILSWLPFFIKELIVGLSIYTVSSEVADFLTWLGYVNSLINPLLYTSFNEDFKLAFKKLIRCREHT

[1] = tested on: p-eIF2α, eIF2A, p-PERK, BiP in HEK293T cells; test: Western blot of ISR-related proteins in HEK293T cells; assay type: cell-based, human; conditions: HEK293T, 0.1, 1, 10, 100 nM, 16 h (overnight)
Method: Huma n e mbryon ic kidn ey (HEK) 293T ce lls (ATCC # C RL- 321 6) were ge nerously dona ted by th e Ca mpb ell Lab (UT Dallas). Cell stock s were previously fr ozen at 1 million cells/ml in 90% fetal bov ine s erum (F BS, ThermoFisher #SH300880340) and 10% DMSO. Cells were grown in complete medium (10% FBS, 1% Pen- Strep in DMEM/F12 + GlutaMax (Gibco #10565- 018) in T-75 flasks (Greiner Bio- One #658175). Cells were maintained at 37 °C with 5% CO2 and passaged twice before being plated onto either 96-well or 6-well plates for ICC/spectrophotometry and western blotting, respectively. Cells were counted using the TC20 automated cell counter (Bio- R ad #1450102) using a 1:1 dilution of trypan blue (Gibco #15250061).
Concentr ations were transformed to […] values and data w as fit to a non- linear regression curve (inhibitor vs response, varia ble slop e , four p aram eters) constrain ed at top at 1 00, bott om at p -eIF2α levels at 300nM, […]
HEK cells were plated at 60,000 cells per well onto six-well plates (ThermoFisher # 351146) for 24 hours before being treated w ith F EM- 1689 overnight. Protein extractions and western blotting w as perfor med as previous ly published (10) . In brief, media fr om the cells was removed and cells were washed once with 1X
PBS. Cells were lysed in the well with radioimmunoprecipitation assay (RIPA) buffer consisting of 25 mM Tris, 150 mM NaCl, 0.1% SDS, 0.5% Na deoxycholate, 1% Triton X-100 with pr otease and phosphatas e inhibitor cocktails (Sigma Aldrich P8340, P5726, P0044 – 1:100 each). Cells were centr ifuged at 4 °C at 14,000 rpm for 10 min. The supernatant was used for downstream analysis. Protein was quantif ied using the Pierce BC A Protein Assay kit (Thermo Scientific, #23225) according to the manufacturer’s instructions.
Prote in samp les were de na tured usin g 4X L aem mli Sa mple buff er (BioR ad #1 610 747) and h eat ed at 95 °C for 5 min. 20 µg of protein samples were loaded onto 4- 20% Stain- Free Criterion TGX gels (BioRad #5678094). Gels were run in Tris/Glycine/SDS running buffer ( BioRad #1610772) at 120V for roughly 1.5 hours. St ain- Free gels wer e activated for 5 min pr ior to t he transf er step. Protein was transferred for 10 min onto low fluorescence poly vinylidene difluor ide (PVDF ) using a TransBlot Transfer kit (BioRad #1704275) and a Transblot Turbo transfer system (BioRad). Onc e transferred, total protein was imaged immediately using a ChemiDoc MP system (BioRad). Blots were allowed to dry for 5 min and were blocked with 5% non- fat milk in Tr is buffered saline (T BS)-Tween 20 (0.05%). Antibodies were diluted in 1% non- fat m ilk in TBS- Twe en 20. Primary ant ibo dies used in this st udy w ere: p- eIF 2α (1:1000, C ell Signaling #3398), t-eIF2α […]

D4 = D4 (Homo sapiens, UniProt P21917); test: PDSP competitive binding assay; conditions: 10 µM test article; read-out: Ki: primary assay inhibition of radioligand binding, D4
Sequence of D4 (P21917 whole entry): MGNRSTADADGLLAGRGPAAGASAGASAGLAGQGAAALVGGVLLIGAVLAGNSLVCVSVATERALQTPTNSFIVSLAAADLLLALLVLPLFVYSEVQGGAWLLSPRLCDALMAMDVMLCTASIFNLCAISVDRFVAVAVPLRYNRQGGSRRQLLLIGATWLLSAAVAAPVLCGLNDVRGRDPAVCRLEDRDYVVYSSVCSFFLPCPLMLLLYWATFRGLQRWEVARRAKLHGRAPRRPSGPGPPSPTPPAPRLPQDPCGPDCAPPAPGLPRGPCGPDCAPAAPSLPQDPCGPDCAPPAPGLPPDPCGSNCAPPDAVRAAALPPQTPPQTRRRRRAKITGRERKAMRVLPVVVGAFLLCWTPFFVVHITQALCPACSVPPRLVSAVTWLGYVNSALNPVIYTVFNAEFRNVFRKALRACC

Beta1 = target: T1, Beta1 (Homo sapiens, UniProt P08588); test: PDSP competitive binding assay; conditions: 10 µM test article; read-out: Ki: primary assay inhibition of radioligand binding, Beta1
T1 construct: purchased NIMH Psychoactive Drug Screening Program (PDSP), University of North Carolina at Chapel Hill
T1 sequence (P08588 whole entry): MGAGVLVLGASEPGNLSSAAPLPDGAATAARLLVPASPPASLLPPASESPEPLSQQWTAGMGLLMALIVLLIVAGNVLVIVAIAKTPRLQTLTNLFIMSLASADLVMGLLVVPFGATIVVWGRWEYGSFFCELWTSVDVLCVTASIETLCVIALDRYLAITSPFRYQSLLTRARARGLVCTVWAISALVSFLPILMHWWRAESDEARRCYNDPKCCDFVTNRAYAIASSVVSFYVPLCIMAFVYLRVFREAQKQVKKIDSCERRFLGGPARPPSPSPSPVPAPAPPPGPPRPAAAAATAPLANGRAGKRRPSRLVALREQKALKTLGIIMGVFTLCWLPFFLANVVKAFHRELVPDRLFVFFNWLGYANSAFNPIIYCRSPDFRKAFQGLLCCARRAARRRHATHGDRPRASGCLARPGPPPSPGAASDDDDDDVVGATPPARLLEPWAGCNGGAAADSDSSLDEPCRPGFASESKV

OCCCN1CC[C@@H]2C[C@H]1c1cc(-c3ccc(C(F)(F)F)cc3)ccc12 [FEM-1689]
inhibition at 10 µM (5HT1e): < 50% | BiP level (western blot) [1]: remained stable; also recorded: remained unchanged | eIF2A level (western blot) [1]: concentration-dependent reduction; also recorded: significant reduction | p-PERK level (western blot) [1]: concentration-dependent reduction; also recorded: significant reduction | p-eIF2α level (western blot) [1]: concentration-dependent reduction; also recorded: significant reduction | inhibition at 10 µM (D4): < 50% | inhibition at 10 µM (Beta1): < 50%
